# Literature values as cited in patent publication EP0882446A1, “Antimicrobial skin cleansing compositions” (GOJO INDUSTRIES,INC., priority 1997, dated 1998).
# What was measured:
# [1] = test system: wide spectrum of bacteria; settings: against a wide spectrum of bacteria; reported
# [2] = at levels below about 3 percent by weight
smiles,measurement,setting,value
"Cc1cc(O)cc(C)c1Cl [PCMX, 4-chloro-3,5-dimethyl phenol]",antimicrobial activity relative to phenol,[1],60 times
same,toxicity and irritation to human skin,[2],non-toxic and non-irritating
